Reference: US5200409A, “Composition and use of substituted 1,3-dithiolo-and 1,4-dithiinoquinoxalines as an antimicrobial” (The Dow Chemical Company, priority 1992, dated 1993)
Values after ≈ are worked out from the molar mass of the structure shown. Like-named read-outs stand apart in the source and are kept apart here.

How the values were obtained:
[1] = system: Enterobacter aerogenes (Ea); experiment: Minimum inhibitory concentration (MIC) in nutrient agar; format: cell-based, Enterobacter aerogenes ATCC 13048; conditions: Klebsiella aerogenes
In short: (§1)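 Growth inhibition was read visually after 48 h at 30° C on nutrient agar plates containing test compound at 500, 250, 100, 50, 25, 10, 5, 2.5, 1.0 or 0 ppm. Plates at pH 6.8 and pH 8.2 were inoculated with bacterial suspensions of 10^8 CFU/ml.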

[2] = system: Pseudomonas aeruginosa (PRD-10); experiment: as above; format: cell-based, Pseudomonas aeruginosa ATCC 15442
In short: as §1

[3] = system: Pseudomonas aeruginosa (Pa); experiment: as above; format: cell-based, Pseudomonas aeruginosa ATCC 10145; conditions: 48 hours
In short: as §1

marine organisms = experiment: Marine antifouling rating of coated test panels exposed to the marine environment; conditions: scale 10 (completely free of growth) to 0 (completely covered); for Marine Antifouling Rating, 3 Week Test, Top Panel / Marine Antifouling Rating, 3 Week Test, Bottom Panel: 3 weeks; for Marine Antifouling Rating, 3 Week Test, Top Panel / Marine Antifouling Rating, 6 Week Test, Top Panel: topside, white background; for Marine Antifouling Rating, 3 Week Test, Bottom Panel / Marine Antifouling Rating, 6 Week Test, Bottom Panel: underside, black background; for Marine Antifouling Rating, 6 Week Test, Top Panel / Marine Antifouling Rating, 6 Week Test, Bottom Panel: 6 weeks
Experimental: Test panels are prepared from clear, rigid polyvinyl chloride film that is 0.381×10^-3 m thick and has one textured surface. The test panels are 0.1524 m by 0.1524 m squares that have 0.00635 m holes punched at corners on 0.127 m centers. A 0.102 square template, with a 0.067 m diameter hole at the center, is attached to the center of the textured surface of the test panels.
A candidate marine antifoulant compound (1.0 g) is stirred into a resinous latex binder (9.0 g). A portion of the compound/binder mixture (1.5 g) is added to the center of the test panel and uniformly spread over the circular area inside the template.
Water is added dropwise as needed to properly spread the compound/binder mixture. The template prevents the compound/binder mixture from spreading beyond the uncovered area. The test panel is allowed to sit for between ten to thirty minutes until the edge of the spread compound/binder mixture has dried. The template is then removed. The test panel is then allowed to dry for 8 to 12 hours at room temperature.
Two test panels are prepared for each candidate marine antifoulant compound. Two control test panels are also prepared by only treating with the resinous latex binder. One test panel of each candidate marine […] compound is attached over a white background to the topside of an exposure support apparatus. The second test panel is attached over a black background to the underside of the exposure support apparatus. The exposure support apparatus is placed horizontally 0.0254 m under a marine surface with the white background topside facing up. The exposure support apparatus is exposed to the marine environment for both 3 and 6 weeks during which time the control test panels become substantially covered with mature marine organism growth on both the topside and underside exposures.
After being removed from the exposure support apparatus, each test panel is inspected and rated for marine organism growth on both the treated and untreated areas of the test panel. The marine organisms present on the treated and untreated areas are noted. The presence of algea spores and bacterial slime are noted but not included in rating each test panel. The test panels are rated on a scale from 10 (representing completely free of marine organism growth) to 0 (representing completely covered with marine organism growth).

[4] = 48 h, pH 6.8, read-out: Minimum Inhibitory Concentration, Ea
[5] = 48 h, pH 8.2, read-out: Minimum Inhibitory Concentration, Ea
[6] = 48 h, pH 6.8, read-out: Minimum Inhibitory Concentration, PRD
[7] = 48 h, pH 8.2, read-out: Minimum Inhibitory Concentration, PRD

Row | SMILES | MIC [1, 4] | MIC [1, 5] | MIC [2, 6] | MIC [2, 7] | MIC ([3]; pH 6.8, 30° C.) | MIC ([3]; pH 8.2, 30° C.) | Marine Antifouling Rating, 3 Week Test, Top Panel (marine organisms) | Marine Antifouling Rating, 3 Week Test, Bottom Panel (marine organisms) | Marine Antifouling Rating, 6 Week Test, Top Panel (marine organisms) | Marine Antifouling Rating, 6 Week Test, Bottom Panel (marine organisms) | MIC ([1]; pH 6.8, nutrient agar, 30° C., 48 hours, read-out: Minimum Inhibitory Concentration, Ea) | MIC ([2]; pH 6.8, nutrient agar, 30° C., 48 hours, read-out: Minimum Inhibitory Concentration, PRD)
1 | N#CC1=C(C#N)Sc2nc3cc([N+](=O)[O-])c([N+](=O)[O-])cc3nc2S1 [B, 7,8-Dinitro-1,4-dithiino-(2,3-b)quinoxaline-2,3-dicarbonitrile] | > 500 µg/mL | > 500 µg/mL | > 500 µg/mL | > 500 µg/mL | > 500 µg/mL | > 500 µg/mL | 6 | 3 | 3 | 0 | – | –
2 | N#CC1=C(C#N)Sc2nc3ccccc3nc2S1 [E, 1,4-dithiino-(2,3-b)-quinoxaline-2,3-dicarbonitrile] | > 500 µg/mL | > 500 µg/mL | > 500 µg/mL | > 500 µg/mL | > 500 µg/mL | > 500 µg/mL | 8 | 4 | 9 | 0 | – | –
3 | N#CC(C#N)=C1Sc2nc3ccc(Cl)cc3nc2S1 [O, 6-chloro-1,3-dithiolo-(4,5-b)-quinoxaline-2-ylidene-propanedinitrile] | > 500 µg/mL | > 500 µg/mL | > 500 µg/mL | > 500 µg/mL | > 500 µg/mL | > 500 µg/mL | 0 | 2 | 6 | 0 | – | –
4 | N#CC(C#N)=C1Sc2nc3cc([N+](=O)[O-])c([N+](=O)[O-])cc3nc2S1 [M, 6,7-dinitro-1,3-dithiolo-(4,5-b)-quinoxaline-2-ylidene-propanedinitrile] | > 500 µg/mL | > 500 µg/mL | > 500 µg/mL | > 500 µg/mL | 500 µg/mL (≈ 1400 µM) | > 500 µg/mL | 9 | 9 | 5 | 1 | – | –
5 | Cc1ccc2nc3c(nc2c1)SC(C#N)=C(C#N)S3 [D, 7-Methyl-1,4-dithiino-(2,3-b)quinoxaline-2,3-dicarbonitrile] | > 500 µg/mL | > 500 µg/mL | > 500 µg/mL | > 500 µg/mL | > 500 µg/mL | > 500 µg/mL | 4 | 3 | 3 | 0 | – | –
6 | N#CC1=C(C#N)Sc2nc3cc([N+](=O)[O-])ccc3nc2S1 [A, 7-nitro-1,4-dithiino-(2,3-b)-quinoxaline-2,3-dicarbonitrile] | – | > 500 µg/mL | – | > 500 µg/mL | 100 µg/mL (≈ 319 µM) | > 500 µg/mL | 9 | 9 | 8 | 3 | 100 µg/mL (≈ 319 µM) | 250 µg/mL (≈ 798 µM)
7 | N#CC1=C(C#N)Sc2nc3cc(Cl)ccc3nc2S1 [C, 7-chloro-1,4-dithiino-(2,3-b)-quinoxaline-2,3-dicarbonitrile] | > 500 µg/mL | > 500 µg/mL | > 500 µg/mL | > 500 µg/mL | > 500 µg/mL | > 500 µg/mL | 0 | 9 | 5 | 0 | – | –
8 | N#CC(C#N)=C1Sc2nc3ccc([N+](=O)[O-])cc3nc2S1 [L, 6-nitro-1,3-dithiolo-(4,5-b)-quinoxaline-2-ylidene-propanedinitrile] | > 500 µg/mL | > 500 µg/mL | > 500 µg/mL | > 500 µg/mL | > 500 µg/mL | > 500 µg/mL | 7 | 7 | 9 | 0 | – | –
